Laboratory results taken from US9301923B2, “Lipids, lipid compositions, and methods of using them” (NOVARTIS AG, priority 2009, dated 2016).
Several values for one entry are separate records, joined by “and”; a condition that tells them apart may be missing. Identical values can stand only once. Like-named read-outs stand apart in the source and are kept apart here.

Tests used:
Factor VII = Factor VII activity assay, in vivo liver delivery of FVII siRNA LNP; design: species or system mouse; conditions: ~48 h
Experimental: Female CD-1 mice are received from Charles River Labs and maintained on standard lab chow and water ad libitum. The animals weigh approximately 25 grams at time of dosing. Formulated siRNA is administered as a single dose at various dose levels intravenously via the lateral tail vein calculated on a (mg siRNAs/kg) basis according to individual animal weights (10 ml/kg injection volume).
Formulated siRNAs are made up of double stranded siRNA sequences specific to a target mRNA sequence, and are in the form of lipid nucleotid particles (LNPs) containing cationic lipids, stealth lipids and neutral lipids, as provided in the Examples below. The siRNA construct for use in targeting the liver is specific to Factor VII. […] FVII siRNA duplex sequence
Formulated Factor VII siRNA is administered as a single dose at various dose levels intravenously via the lateral tail vein calculated on a mg siRNAs/kg basis according to individual animal weights (10 ml/kg injection volume). Approximately 48 h after injection, the mice are euthanized by CO2 inhalation followed by exsanguinations through the vena cava. […] In some cases, small pieces (˜50 mg) of liver are collected and snap frozen in liquid nitrogen for follow up mRNA quantitation.
An assay standard curve is prepared using pooled plasma aliquots from the vehicle control animals.

[1] = pKa of the lipid by TNS fluorescence; format: physicochemical
Experimental: Unless explicitly indicated otherwise, all pKas referred to herein are measured in water at standard temperature and pressure. Also, unless otherwise indicated, all references to pKa are references to pKa measured using the following technique.
2 mM solution of lipid in ethanol are prepared by weighing the lipid and then dissolving in ethanol.
This is done with all eight buffers.
Priority: Column priority • Carriage Speed: Normal • Auto read: Off
The normalized fluorescence intensity vs. pH chart is then plotted in the Microsoft Excel software. The eight points are connected with a smooth line.
The pKa determined using this method is precise to about 0.2 pKa units.

[2] = Particle size and PDI by dynamic light scattering (Malvern Zetasizer); format: physicochemical
Experimental: Unless indicated otherwise, all sizes referred to herein are the average sizes (diameters) of the fully formed nanoparticle, as measured by dynamic light scattering on a Malvern Zetasizer. The nanoparticle sample is diluted in phosphate buffered saline (PBS) so that the count rate is approximately 200-400 kcts. The data is presented as a weighted average of the intensity measure.
The acronym PDI stands for polydispersity index. Unless indicated otherwise, all PDIs referred to herein are the PDI of the fully formed nanoparticle, as measured by dynamic light scattering on a Malvern Zetasizer. The nanoparticle sample is diluted in phosphate buffered saline (PBS) so that the count rate is approximately 200-400 kcts.

[3] = dose 3 mg/kg siRNA i.v., lipid/DSPC/CHOL/AVANTI 880150P 50/28/18/4, N/P 3.43
[4] = dose 3 mg/kg siRNA i.v., lipid/no neutral lipid/CHOL/AVANTI 880150P 50/0/46/4, N/P 3.43
[5] = lipid/DSPC/CHOL/AVANTI 880150P 50/28/18/4, N/P 3.43
[6] = lipid/no neutral lipid/CHOL/AVANTI 880150P 50/0/46/4, N/P 3.43
[7] = dose 1 mg/kg siRNA i.v., lipid/no neutral lipid/CHOL/AVANTI 880150P 50/0/46/4, N/P 3.43

Row | SMILES | FVII inhib % (Factor VII; [3]) [%] | FVII inhib % (Factor VII; [4]) [%] | pKa ([1]; pKa) | Final size (nm) [2, 5] [nm] | PDI [2, 5] | Final size (nm) [2, 6] | PDI [2, 6] | FVII inhib % (Factor VII; dose 1 mg/kg siRNA i.v., lipid/DSPC/CHOL/AVANTI 880150P 50/28/18/4, N/P 3.43) [%] | FVII inhib % (Factor VII; [7]) [%] | pKa [1] | Final size (nm) ([2]; LNP formulation with PLK1 siRNA, helper, neutral and stealth lipid, molar ratio and N/P as in the table) | Final size (nm) ([2]; LNP formulation with PLK1 siRNA, helper, neutral and stealth lipid, molar ratio and N/P as in the table, stealth lipid S004, molar ratio 50/38/10/2, N/P 4) | Final size (nm) ([2]; LNP formulation with PLK1 siRNA, helper, neutral and stealth lipid, molar ratio and N/P as in the table, stealth lipid S004, molar ratio 50/43/5/2, N/P 4) | Final size (nm) ([2]; LNP formulation with PLK1 siRNA, helper, neutral and stealth lipid, molar ratio and N/P as in the table, stealth lipid S004, molar ratio 50/48/2, N/P 4)
1 | CCCCC/C=C\C/C=C\CCCCCCCCOCC(CN1CCc2ccccc2C1)OCCOCCO[C@H]1CC[C@@]2(C)C(=CC[C@H]3[C@@H]4CC[C@H]([C@H](C)CCCC(C)C)[C@@]4(C)CC[C@@H]32)C1 (stereo partly shown) [E0001] | 27.6 | 20.1 | 4.84 | 71 | 0.101 | 77 nm | 0.16 |  |  |  |  |  |  | 
2 | CCCCC/C=C\C/C=C\CCCCCCCCOCC(CN1CCC(N2CCCCC2)CC1)OCCOCCO[C@H]1CC[C@@]2(C)C(=CCC3C2CC[C@@]2(C)C3CC[C@@H]2[C@H](C)CCCC(C)C)C1 (stereo partly shown) [E0004] | 23.4 | 41 | 7.48 | 142 | 0.113 | 186 nm | 0.201 |  |  |  |  |  |  | 
3 | CCCCC/C=C\C/C=C\CCCCCCCCOCC(CN1C[C@@H](C)O[C@@H](C)C1)OCCOCCO[C@H]1CC[C@@]2(C)C(=CC[C@H]3[C@@H]4CC[C@H]([C@H](C)CCCC(C)C)[C@@]4(C)CC[C@@H]32)C1 (stereo partly shown) [E0006] | 15.7 | 21.2 | 4.88 | 146 | 0.04 | 95 nm | 0.142 |  |  |  |  |  |  | 
4 | CCCCC/C=C\C/C=C\CCCCCCCCOCC(CN1CCC2(CC1)OCCCO2)OCCOCCO[C@H]1CC[C@@]2(C)C(=CCC3C2CC[C@@]2(C)C3CC[C@@H]2[C@H](C)CCCC(C)C)C1 (stereo partly shown) [E0007] | 72.2 | 76.8 | 5.84 | 92 | 0.178 | 138 nm | 0.148 |  |  |  |  |  |  | 
5 | CCCCC/C=C\C/C=C\CCCCCCCCOCC(CN1CC[C@H]2OC(C)(C)O[C@H]2C1)OCCOCCO[C@H]1CC[C@@]2(C)C(=CCC3C2CC[C@@]2(C)C3CC[C@@H]2[C@H](C)CCCC(C)C)C1 (stereo partly shown) [E0009] | 38.4 | 6.9 | 4.89 | 83 | 0.2 | 82 nm | 0.16 |  |  |  |  |  |  | 
6 | CCCCC/C=C\C/C=C\CCCCCCCCOCC(CN1CCCC2CCCCC21)OCCOCCO[C@H]1CC[C@@]2(C)C(=CCC3C2CC[C@@]2(C)C3CC[C@@H]2[C@H](C)CCCC(C)C)C1 (stereo partly shown) [E0010] | 46.8 | 65.1 | 5.85 | 90 | 0.184 | 80 nm | 0.201 |  |  |  |  |  |  | 
7 | CCCCC/C=C\C/C=C\CCCCCCCCOCC(CN1CCCC1)OCCOCCO[C@H]1CC[C@@]2(C)C(=CC[C@H]3[C@@H]4CC[C@H]([C@H](C)CCCC(C)C)[C@@]4(C)CC[C@@H]32)C1 (stereo partly shown) [E0015] | 30.7 | 77.1 | 7.39 | 164 | 0.06 | 130 nm | 0.05 |  |  |  |  |  |  | 
8 | CCCCC/C=C\C/C=C\CCCCCCCCOCC(CN1CCC2(CC1)OCCO2)OCCOCCO[C@H]1CC[C@@]2(C)C(=CCC3C2CC[C@@]2(C)C3CC[C@@H]2[C@H](C)CCCC(C)C)C1 (stereo partly shown) [E0016] | 88.8 | 59.9 | 5.85 | 97 | 0.175 | 178 nm | 0.206 |  |  |  |  |  |  | 
9 | CCCCC/C=C\C/C=C\CCCCCCCCOCC(CN1CCCCCC1)OCCOCCO[C@H]1CC[C@@]2(C)C(=CC[C@H]3[C@@H]4CC[C@H]([C@H](C)CCCC(C)C)[C@@]4(C)CC[C@@H]32)C1 (stereo partly shown) [E0017] | 98.3 | 96.5 | 6.46 | 106 | 0.17 | 97 nm | 0.19 | 53.8 |  |  |  |  |  | 
10 | CCCCC/C=C\C/C=C\CCCCCCCCOCC(CN1CC=CCC1)OCCOCCO[C@H]1CC[C@@]2(C)C(=CCC3C2CC[C@@]2(C)C3CC[C@@H]2[C@H](C)CCCC(C)C)C1 (stereo partly shown) [E0018] | 91.8 | 98 | 5.9 | 119 | 0.095 | 103 nm and 140 nm | 0.113 and 0.13 |  | 40.5 |  |  |  |  | 
11 | CCCCC/C=C\C/C=C\CCCCCCCCOCC(CN1CCCC[C@@H]1C)OCCOCCO[C@H]1CC[C@@]2(C)C(=CCC3C2CC[C@@]2(C)C3CC[C@@H]2[C@H](C)CCCC(C)C)C1 (stereo partly shown) [E0019] | 76.7 | 85.2 | 6.75 | 143 | 0.065 | 90.5 nm and 180 nm | 0.164 and 0.19 |  | 33.7 |  |  |  |  | 
12 | CCCCC/C=C\C/C=C\CCCCCCCCOCC(CN1CC[C@@H]2CCCC[C@H]2C1)OCCOCCO[C@H]1CC[C@@]2(C)C(=CCC3C2CC[C@@]2(C)C3CC[C@@H]2[C@H](C)CCCC(C)C)C1 (stereo partly shown) [E0020] | 62.4 | 51.4 | 6.08 | 83 | 0.138 | 81 nm | 0.084 |  |  |  |  |  |  | 
13 | CCCCC/C=C\C/C=C\CCCCCCCCOCC(CN1CC[C@@H]2CCCC[C@@H]2C1)OCCOCCO[C@H]1CC[C@@]2(C)C(=CCC3C2CC[C@@]2(C)C3CC[C@@H]2[C@H](C)CCCC(C)C)C1 (stereo partly shown) [E0021] | 24.5 | 52.8 | 5.13 | 85 | 0.22 | 72 nm | 0.184 |  |  |  |  |  |  | 
14 | CCCCC/C=C\C/C=C\CCCCCCCCOCC(CN1CCCC(C)C1)OCCOCCO[C@H]1CC[C@@]2(C)C(=CCC3C2CC[C@@]2(C)C3CC[C@@H]2[C@H](C)CCCC(C)C)C1 (stereo partly shown) [E0023] | 59.1 | 68 | 5.85 | 95 | 0.221 | 99 nm | 0.122 |  |  |  |  |  |  | 
15 | CCCCC/C=C\C/C=C\CCCCCCCCOCC(CN1CCCCC1)OCCOCCOC(=O)O[C@H]1CC[C@@]2(C)C(C=CC3C2CC[C@@]2(C)C3CC[C@@H]2[C@H](C)CCCC(C)C)C1 (stereo partly shown) [E0056] |  |  | 6.33 |  |  |  |  |  |  | 5.84 |  |  |  | 
16 | CCCCC/C=C\C/C=C\CCCCCCCCOCC(CN1CCCCC1)OCCNC(=O)O[C@H]1CC[C@@]2(C)C(=CC[C@H]3[C@@H]4CC[C@H]([C@H](C)CCCC(C)C)[C@@]4(C)CC[C@@H]32)C1 (stereo partly shown) [E0102] |  |  | 6.31 |  |  |  |  |  |  |  | 94.69 |  |  | 
17 | CCCCCCCC/C=C\CCCCCCCCOCC(CN1CCOCC1)OCCOCCOC(=O)CO[C@H]1CC[C@@]2(C)C(=CC[C@H]3[C@@H]4CC[C@H]([C@H](C)CCCC(C)C)[C@@]4(C)CC[C@@H]32)C1 (stereo partly shown) [E0125] |  |  | 5.53 |  |  |  |  |  |  |  |  | 101.5 | 92.84 | 94.13
